Experimental data: patent US12234216B2, “Isotopologues salts, crystalline forms, stereoisomers, of methylone and ethylone and methods of use thereof” (Terran Biosciences Inc., priority 2021, dated 2025)

Assay: Metabolic stability in human liver microsomes
Format: in vitro ADME
Details: for difference in half-life and intrinsic clearance compared with the corresponding non-deuterated methylone hydrochloride: human liver microsomes; for CLint (μL/min/mg protein): human liver microsomes 0.5 mg/mL, 1 μM compound, NADPH, 0-45 min
Procedure: Pooled liver microsomes are purchased from a reputable commercial supplier. Microsomes are stored at […] prior to use. Microsomes (final protein concentration 0.5 mg/mL), 0.1 M phosphate buffer pH 7.4 and test compound (final substrate concentration 1 μM; final DMSO concentration 0.25%) are preincubated at 37° C. prior to the addition of NADPH (final concentration 1 mM) to initiate the reaction. A minus cofactor control incubation is included for each compound tested where 0.1 M phosphate buffer pH 7.4 is added instead of NADPH (minus NADPH). Two control compounds are included with each species. All incubations are performed singularly for each test compound. Each compound is incubated for 0, 5, 15, 30 and 45 min. The control (minus NADPH) is incubated for 45 min only. The reactions are stopped by transferring incubate into acetonitrile at the appropriate time points, in a 1:3 ratio. The termination plates are centrifuged at 3,000 rpm for 20 min at 4° C. to precipitate the protein.
From a plot of ln peak area ratio (compound peak area/internal standard peak area) against time, the gradient of the line is determined. Subsequently, half-life and intrinsic clearance are calculated using the equations below: Elimination rate constant (k)=(−gradient) Half-life (t½)(min)=0.693/k Intrinsic clearance (CLint)(μL/min/mg protein)=V×0.693/t½ where V=Incubation volume (μL)/Microsomal protein (mg)
Relevant control compounds were assessed, ensuring intrinsic clearance values fall within the specified limits (if available).

Structure (SMILES)	difference in half-life and intrinsic clearance compared with the corresponding non-deuterated methylone hydrochloride	CLint (μL/min/mg protein)
Cl.[2H]C1([2H])Oc2ccc(C(=O)[C@@H](C)NC)cc2O1 [(R)-Methylone-d2 hydrochloride, (R)-1-(benzo[d][1,3]dioxol-5-yl-2,2-d2)-2-((methyl)amino)propan-1-one HCl]	differences in half-life and intrinsic clearance	–
Cl.[2H]C([2H])([2H])N[C@H](C)C(=O)c1ccc2c(c1)OCO2 [(R)-Methylone-d3 hydrochloride, (R)-1-(benzo[d][1,3]dioxol-5-yl)-2-((methyl-d3)amino)propan-1-one HCl]	differences in half-life and intrinsic clearance	–
Cl.[2H]C([2H])([2H])N[C@H](C)C(=O)c1ccc2c(c1)OC([2H])([2H])O2 [(R)-Methylone-d5 hydrochloride, (R)-1-(benzo[d][1,3]dioxol-5-yl-2,2-d2)-2-((methyl-d3)amino)propan-1-one HCl]	most significant difference in half-life and intrinsic clearance	6.27 μL/min/mg protein
Cl.[2H]C1([2H])Oc2ccc(C(=O)[C@H](C)NC)cc2O1 [(S)-Methylone-d2 hydrochloride, (S)-1-(benzo[d][1,3]dioxol-5-yl-2,2-d2)-2-(methylamino)propan-1-one hydrochloride]	differences in half-life and intrinsic clearance	–
Cl.[2H]C([2H])([2H])N[C@@H](C)C(=O)c1ccc2c(c1)OCO2 [(S)-Methylone-d3 hydrochloride, (S)-1-(benzo[d][1,3]dioxol-5-yl)-2-((methyl-d3)amino)propan-1-one HCl]	differences in half-life and intrinsic clearance	9.60 μL/min/mg protein
Cl.[2H]C([2H])([2H])N[C@@H](C)C(=O)c1ccc2c(c1)OC([2H])([2H])O2 [(S)-Methylone-d5 hydrochloride, (S)-1-(benzo[d][1,3]dioxol-5-yl-2,2-d2)-2-((methyl-d3)amino)propan-1-one hydrochloride]	most significant difference in half-life and intrinsic clearance	9.07 μL/min/mg protein
